Test results published in patent US5723491A, “Fungicidal composition and method of controlling fungus infestation” (Novartis Corporation, priority 1994, dated 1998).
Several values for one entry are separate records, joined by “and”; a condition that tells them apart may be missing. Equal entries are not always repeated. Where two headings read alike, the source gives them in different places.

Columns and labels:
[1] = tested on: Phytophthora palmivora; conditions: S-enantiomer versus R-enantiomer of metalaxyl; cited from earlier work
[2] = tested on: metalaxyl-sensitive strain of Plasmopara viticola; assay: Foliar spray on vine plantlets infected with Plasmopara viticola (two-leaf and three-leaf stage sprayings); format: in vivo
Description: Vine plantlets cv. "Gutedel" are grown under greenhouse conditions using one plant per pot (.O slashed.=6 cm) and sprayed with a spray broth prepared from an emulsion concentrate, either in the two-leaf stage or in the three-leaf stage. The following concentrations of active ingredient are used per batch of 4 plants: 200; 60; 20; 6; 2; 0.6; 0.2; 0.06 mg of a.i./liter. This dilution series is prepared in demineralized water immediately prior to application as a foliar spray. To exclude a gas-phase effect of the a.i. in the vicinity, all plants are separated from each other on the side using translucent plastic foils and kept in the dark for one day at 20°-22° C. and a relative humidity of approximately 100%.
Then, the entire leaf surface area of the plants is uniformly sprayed to drip point with a freshly prepared sporangia suspension (120 000/ml) of a metalaxyl-sensitive strain of Plasmopara viticola. The plants are then kept for 7 days under a 16 hour photoperiod with artificial daylight at 20°-22° C. and a relative humidity of approximately 100%. This is followed by evaluation of the infestation, separating three-leaf and two-leaf stage sprayings. The tables show in each case the average of 4 parallel sprayings.

[3] = 20° C., cited from earlier work
[4] = Degradation behaviour in moderately heavy soil (silt/loam) under laboratory conditions
Description: Degradation Behaviour of Racemic Metalaxyl and R-metalaxyl in Moderately Heavy Soil
Two groups of 8 samples each of biologically active soil (silt/loam; loam: 13.9%; silt: 54.3%; sand: 31.8%; organic carbon: 2.1%; pH 7.3; biomass: 65.1 mg microbial carbon per 100 g soil; origin: Les Evouettes, Valais, Switzerland) are treated in parallel with racemic metalaxyl or R-metalaxyl, respectively, in each case in acetonic solution. The rate of application is 0.5 mg/kg of soil sample, which corresponds to a rate of application of 0.5 kg/hectare. The results are evaluated in duplicate after 0, 7, 14 and 21 days.

[5] = Degradation behaviour in sandy soil under laboratory conditions; parameters: degradation equation Ct, rate constant in exponent: unit: 1/day; conditions: sand
Description: Degradation Behaviour of Racemic Metalaxyl and R-metalaxyl in Sandy Soil
Two groups of 16 samples each of biologically active soil (sandy soil; loam: 5.1%; silt: 11.4%; sand: 83.5%; organic carbon: 1.6%; pH 4; biomass: 51 mg microbial carbon/100 g soil; origin: Collombey, Valais, Switzerland)are treated in parallel with racemic metalaxyl or R-metalaxyl, respectively, in each case in acetonic solution. The rate of application is 0.5 mg/kg of soil sample, which corresponds to a rate of application of 0.5 kg/hectare. The results are evaluated in duplicate after 0, 1, 3, 7, 9, 15, 21 and 29 days.

[6] = day 7, mean of duplicate, 10080 min
[7] = day 7, single sample, 10080 min
[8] = day 21, mean of duplicate, 30240 min
[9] = day 21, single sample, 30240 min

In the case of `COCC(=O)N(c1c(C)cccc1C)[C@@H](C)C(=O)OC` [S-enantiomer of metalaxyl], the “ED50 inhibitory value in nucleic acid synthesis relative to R-enantiomer (times more unfavorable)” value [1] is given as “approximately fifty”.

Molecule `COCC(=O)N(c1c(C)cccc1C)C(C)C(=O)OC` (racemic) [racemic metalaxyl, N-(2,6-dimethylphenyl)-N-(methoxyacetyl)-DL-alanine methyl ester] has a Foliar infestation ([2]; three-leaf stage, 0.06 mg of a.i./liter, untreated control 92) of 92%, a Foliar infestation ([2]; three-leaf stage, 0.2 mg of a.i./liter, untreated control 92) of 90% and a Foliar infestation ([2]; three-leaf stage, 0.6 mg of a.i./liter, untreated control 92) of 96%. For the same molecule, the Foliar infestation ([2]; three-leaf stage, 2 mg of a.i./liter, untreated control 92) was 80%, the “activity” value ([2]; three-leaf stage, 6 mg of a.i./liter (or less)) was “virtually no activity” and the Foliar infestation ([2]; three-leaf stage, 6 mg of a.i./liter, untreated control 92) was 85%. For the same molecule, the Foliar infestation ([2]; three-leaf stage, 20 mg of a.i./liter, untreated control 92) was 27%, the “activity” value ([2]; three-leaf stage, 20 mg/liter) was “a more clear-cut activity is only discernible” and the Foliar infestation ([2]; three-leaf stage, 60 mg of a.i./liter, untreated control 92) was 0%. For the same molecule, the Foliar infestation ([2]; three-leaf stage, 200 mg of a.i./liter, untreated control 92) was 0%, the Foliar infestation ([2]; two-leaf stage, 0.06 mg of a.i./liter, untreated control 96) was 96% and the Foliar infestation ([2]; two-leaf stage, 0.2 mg of a.i./liter, untreated control 96) was 97%. It also gave a Foliar infestation ([2]; two-leaf stage, 0.6 mg of a.i./liter, untreated control 96) of 100%, a Foliar infestation ([2]; two-leaf stage, 2 mg of a.i./liter, untreated control 96) of 87% and a Foliar infestation ([2]; two-leaf stage, 6 mg of a.i./liter, untreated control 96) of 76%. For the same molecule, the Foliar infestation ([2]; two-leaf stage, 20 mg of a.i./liter, untreated control 96) was 38%, the Foliar infestation ([2]; two-leaf stage, 60 mg of a.i./liter, untreated control 96) was 0% and the Foliar infestation ([2]; two-leaf stage, 200 mg of a.i./liter, untreated control 96) was 0%. For the same molecule, the “effect for practical purposes” value ([2]; two-leaf stage, below 20 mg of a.i./liter) was “without effect for practical purposes”, the “action against foliar infestation” value ([2]; two-leaf stage, below 60 mg of a.i./liter) was “does not result in a clear-cut action against foliar infestation” and the “DT-50 (hydrolytic half-life)” value ([3]; pH1) was over 200 days. For the same molecule, the “DT-50 (hydrolytic half-life)” value ([3]; pH9) was 115 days, the “Compound remaining in soil (% of applied)” value ([4]; day 0, mean of duplicate) was 90.39 % of applied and the “Compound remaining in soil (% of applied)” value ([4]; day 0, single sample) was 90.41 % of applied and 90.36 % of applied. The “Compound remaining in soil (% of applied)” value [4, 6] was 46.23 % of applied, the “Compound remaining in soil (% of applied)” value [4, 7] was 47.28 % of applied and 45.17 % of applied and the “Compound remaining in soil (% of applied)” value ([4]; day 14, mean of duplicate, 20160 min) was 35.71 % of applied. The “Compound remaining in soil (% of applied)” value ([4]; day 14, single sample, 20160 min) was 35.88 % of applied and 35.54 % of applied, the “Compound remaining in soil (% of applied)” value [4, 8] was 29.20 % of applied and the “Compound remaining in soil (% of applied)” value [4, 9] was 29.34 % of applied and 29.06 % of applied. For the same molecule, the “degradation equation Ct, pre-exponential factor” value ([4]; first-order fit) was 86.66, the “DT-50 (50% degradation)” value ([4]; from degradation curve FIG. 1) was 10.8 days and the “DT-90 (90% degradation)” value ([4]; from degradation curve FIG. 1) was 35.7 days. For the same molecule, the “Rate of degradation (% of applied), mean” value ([5]; day 0, mean of duplicate) was 97.78 % of applied, the “Rate of degradation (% of applied)” value ([5]; day 0, single sample) was 98.00 % of applied and 97.56 % of applied and the “Rate of degradation (% of applied), mean” value ([5]; day 1, mean of duplicate, 1440 min) was 87.82 % of applied. For the same molecule, the “Rate of degradation (% of applied)” value ([5]; day 1, single sample, 1440 min) was 87.75 % of applied and 87.88 % of applied, the “Rate of degradation (% of applied), mean” value ([5]; day 3, mean of duplicate, 4320 min) was 80.01 % of applied and the “Rate of degradation (% of applied)” value ([5]; day 3, single sample, 4320 min) was 80.32 % of applied and 79.69 % of applied. The “Rate of degradation (% of applied), mean” value [5, 6] was 65.01 % of applied, the “Rate of degradation (% of applied)” value [5, 7] was 65.41 % of applied and 64.60 % of applied and the “Rate of degradation (% of applied), mean” value ([5]; day 9, mean of duplicate, 12960 min) was 56.26 % of applied. For the same molecule, the “Rate of degradation (% of applied)” value ([5]; day 9, single sample, 12960 min) was 55.84 % of applied and 56.68 % of applied, the “Rate of degradation (% of applied), mean” value ([5]; day 15, mean of duplicate, 21600 min) was 42.54 % of applied and the “Rate of degradation (% of applied)” value ([5]; day 15, single sample, 21600 min) was 43.49 % of applied and 41.58 % of applied. The “Rate of degradation (% of applied), mean” value [5, 8] was 31.99 % of applied, the “Rate of degradation (% of applied)” value [5, 9] was 30.77 % of applied and 33.21 % of applied and the “Rate of degradation (% of applied), mean” value ([5]; day 29, mean of duplicate, 41760 min) was 28.49 % of applied. For the same molecule, the “Rate of degradation (% of applied)” value ([5]; day 29, single sample, 41760 min) was 28.70 % of applied and 28.28 % of applied, the “degradation equation Ct, pre-exponential factor” value ([5]; first-order fit) was 93.67 and the “degradation equation Ct, rate constant in exponent” value ([5]; first-order fit, e^(-k*t)) was 0.05006. For the same molecule, the “DT-50 (50% degradation)” value ([5]; from degradation curve FIG. 2) was 13.9 days and the “DT-90 (90% degradation)” value ([5]; from degradation curve FIG. 2) was 46.0 days.
